From patent publication US6288037A (BASF Aktiengesellschaft, priority 1996, dated 2001) come the findings set out here.

Where a SMILES comes first, the peptide text is derived from it.

The target in one data set is T1, N-His Ich-1 (Homo sapiens, UniProt P42575).
T1 construct: contains Ich-1 amino acid residues 167-435, with an initiator and polyhistidine tag fused to the amino terminus; initiator (Met) + polyhistidine tag (N); made in house
T1 sequence (P42575 184-333): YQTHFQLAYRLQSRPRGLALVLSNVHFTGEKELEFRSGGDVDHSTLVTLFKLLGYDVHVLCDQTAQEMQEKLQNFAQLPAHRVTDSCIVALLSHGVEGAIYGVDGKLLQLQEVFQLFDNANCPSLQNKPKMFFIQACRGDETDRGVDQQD
T1 sequence (P42575 334-452): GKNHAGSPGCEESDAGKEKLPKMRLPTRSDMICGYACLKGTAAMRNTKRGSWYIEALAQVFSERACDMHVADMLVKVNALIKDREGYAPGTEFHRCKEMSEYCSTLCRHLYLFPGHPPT
Nature of the data set: In vitro proteolysis assay: cleavage of candidate peptide substrates by N-His Ich-1 (reverse phase HPLC). In kind it is biochemical. To be noted: 10 μM peptide, 30° C., pH 6.2, 60 minute reaction. An excerpt:
To identify peptide substrates for Ich-1, candidate peptides were used in in vitro proteolysis assays with recombinant Ich-1 protein. Human Ich-1 enzyme (the nucleotide and amino acid sequences for which are disclosed in Wang, L., et al. (1994) Cell 78:739-750) was expressed recombinantly with an N-terminal polyhistidine tag by methods described in Kamens, J., et al. (1995) J. Biol. Chem. 270:15250-15256. The resulting enzyme, called N-His Ich-1, contains Ich-1 amino acid residues 167-435, with an initiator and polyhistidine tag fused to the amino terminus. The recombinant N-His Ich-1 protein was purified by metal chelating column chromatography as described in Porath, J. (1992) Protein Expression and Purification 3:263-281.
Candidate peptide substrates were synthesized by standard solid phase methods and were purified to ≥95% by reverse-phase chromatography. Peptide identities were confirmed by mass spectrometry. Each peptide was acetylated at the amino-terminus and amidated at the carboxy-terminus. The amino acid sequence of each peptide included at least one Trp or Tyr residue. Stock solutions of each peptide were prepared in dimethylsulfoxide (DMSO) at approximately 10 mM. The precise concentration of each stock solution was determined in duplicate as described in Edelhoch, H. (1967) Biochemistry 6:1948-1954. Dilutions of each stock solution to 500 μM were prepared and stored at -20° C. prior to use in enzyme assays.
To determine the substrate specificity of Ich-1, Vmax /Km values for various candidate peptide substrates were compared using experimental procedures modeled after those of Howard, A., et al. (1991) J. Immunol. 147:2964-2969. Enzyme reaction mixtures (810 μL) were prepared containing: 100 mM sodium acetate (pH 6.2), 20% (v/v) glycerol, 5 mM dithiothreitol, 0.5 mM EDTA and approximately 15 μg N-His Ich-1. These mixtures were capped and preincubated for 30 minutes at 30° C. Candidate peptide substrates were added from 500 μM DMSO stocks to give final concentrations of 10 μM peptide and 2% (v/v) DMSO. The reaction mixtures were then capped and incubation was continued at 30° C. At 10 minute intervals for 60 minutes beginning at t=0, aliquots of 110 μL were removed from each reaction mixture and added to vials containing 11 μL of a solution of 3 M HCl in water to stop the enzyme reaction. Samples were stored at room temperature prior to analysis.
Samples were analyzed by reverse phase HPLC using a 250×4.6 mm C18 reverse phase column (Vydak, Hesperia, Calif.) and a linear gradient of MeCN--H2 O with 0.1% (v/v) TFA. The area under the substrate peaks (arbitrary units) was plotted vs. time of reaction for each substrate and fit into an equation of the form: [formula]
wherein S0 is substrate peak area at time=0, St is substrate peak area at time=t, e is a constant approximately equal to 2.718, k is the first order rate constant formally equal to Vmax /Km and t is time. […] Alternatively, results can be expressed as percent substrate cleavage after a fixed time of reaction.
For the compound `CC(=O)N[C@@H](CCCNC(=N)N)C(=O)NCC(=O)N[C@H](C(=O)N[C@@H](CC(=O)O)C(=O)N[C@@H](CCC(N)=O)C(=O)N[C@@H](CCC(N)=O)C(=O)N[C@@H](CC(=O)O)C(=O)NCC(=O)N[C@@H](CCCCN)C(=O)N[C@@H](CC(N)=O)C(=O)N[C@@H](Cc1c[nH]cn1)C(=O)N[C@@H](Cc1c[nH]c2ccccc12)C(N)=O)C(C)C` [Peptide 1, acetyl-RGVDQQDGKNHW-amide] (Ac-RGVDQQDGKNHW-NH2), the “% Cleavage after 60 minute reaction” value is on record as 80%.
Still for that read-out and setting: the result for `CC(=O)N[C@@H](CC(N)=O)C(=O)N[C@@H](CCC(=O)O)C(=O)N[C@@H](C)C(=O)N[C@@H](Cc1ccc(O)cc1)C(=O)N[C@H](C(=O)N[C@@H](Cc1c[nH]cn1)C(=O)N[C@@H](CC(=O)O)C(=O)N[C@@H](C)C(=O)N1CCC[C@H]1C(=O)N[C@H](C(=O)N[C@@H](CCCNC(=N)N)C(=O)N[C@@H](CO)C(=O)N[C@@H](CC(C)C)C(=O)N[C@@H](Cc1ccc(O)cc1)C(N)=O)C(C)C)C(C)C` [Peptide 2, acetyl-NEAYVHDAPVRSLY-amide] (Ac-NEAYVHDAPVRSLY-NH2) reads 0%; that for `CC(=O)N[C@@H](Cc1c[nH]c2ccccc12)C(=O)NCC(=O)N[C@@H](CC(=O)O)C(=O)N[C@@H](CCC(=O)O)C(=O)N[C@H](C(=O)N[C@@H](CC(=O)O)C(=O)NCC(=O)N[C@H](C(=O)N[C@@H](CC(=O)O)C(=O)N[C@@H](CCC(=O)O)C(=O)N[C@H](C(=O)N[C@@H](Cc1c[nH]c2ccccc12)C(N)=O)C(C)C)C(C)C)C(C)C` [Peptide 3, acetyl-WGDEVDGVDEVW-amide] (Ac-WGDEVDGVDEVW-NH2), 0%.
On to `CC(=O)N[C@@H](Cc1c[nH]cn1)C(=O)N[C@@H](CO)C(=O)N[C@@H](CC(C)C)C(=O)N[C@@H](CC(=O)O)C(=O)N[C@@H](CC(N)=O)C(=O)N[C@@H](CCCCN)C(=O)N[C@@H](CC(=O)O)C(=O)NCC(=O)N1CCC[C@H]1C(=O)N[C@H](C(=O)N[C@@H](Cc1c[nH]c2ccccc12)C(N)=O)C(C)C` [Peptide 4, acetyl-HSLDNKDGPVW-amide] (Ac-HSLDNKDGPVW-NH2), for which the “% Cleavage after 60 minute reaction” value worked out at 0%.
On the same count and under the same terms, for `CSCC[C@H](NC(=O)[C@H](CC(=O)O)NC(=O)[C@H](CCC(=O)O)NC(=O)CNC(C)=O)C(=O)N[C@@H](CCC(N)=O)C(=O)N[C@@H](CC(=O)O)C(=O)N[C@@H](CC(N)=O)C(=O)N[C@@H](CO)C(=O)NCC(=O)N[C@H](C(=O)N[C@@H](Cc1ccc(O)cc1)C(=O)N[C@@H](Cc1c[nH]c2ccccc12)C(N)=O)[C@@H](C)O` [Peptide 5, acetyl-GEDMQDNSGTYW-amide] (Ac-GEDMQDNSGTYW-NH2) the value was 1%; for `CSCC[C@H](NC(=O)[C@H](CCC(N)=O)NC(=O)[C@H](CC(=O)O)NC(=O)[C@H](CO)NC(=O)[C@H](Cc1ccc(O)cc1)NC(C)=O)C(=O)N[C@@H](CC(=O)O)C(=O)NCC(=O)N[C@@H](Cc1ccccc1)C(=O)N[C@@H](Cc1c[nH]cn1)C(=O)N[C@@H](CC(=O)O)C(=O)N[C@@H](CO)C(=O)N[C@@H](Cc1c[nH]c2ccccc12)C(N)=O` [Peptide 6, acetyl-YSDQMDGFHDSW-amide] (Ac-YSDQMDGFHDSW-NH2), 0%; for `CC[C@H](C)[C@H](NC(=O)CNC(=O)[C@H](CS)NC(C)=O)C(=O)N[C@@H](CCC(=O)O)C(=O)N[C@H](C(=O)N[C@@H](CC(=O)O)C(=O)N[C@@H](CO)C(=O)NCC(=O)N[C@H](C(=O)N[C@@H](CC(=O)O)C(=O)N[C@@H](CC(=O)O)C(=O)N[C@@H](Cc1c[nH]c2ccccc12)C(N)=O)C(C)C)[C@@H](C)O` [Peptide 7, acetyl-CGIETDSGVDDW-amide] (Ac-CGIETDSGVDDW-NH2), 8%.

Staying with this data set, now noted: Tables 1-3.
`CC(=O)N[C@@H](CCCNC(=N)N)C(=O)NCC(=O)N[C@H](C(=O)N[C@@H](CC(=O)O)C(=O)N[C@@H](CCC(N)=O)C(=O)N[C@@H](CCC(N)=O)C(=O)N[C@@H](CC(=O)O)C(=O)NCC(=O)N[C@@H](CCCCN)C(=O)N[C@@H](CC(N)=O)C(=O)N[C@@H](Cc1c[nH]cn1)C(=O)N[C@@H](Cc1c[nH]c2ccccc12)C(N)=O)C(C)C` [Peptide 1, acetyl-RGVDQQDGKNHW-amide] (Ac-RGVDQQDGKNHW-NH2): the “cleavage by N-His Ich-1 (in words)” value is “cleaved at a rate significantly greater than the other tested peptides”.
Consider `CC(=O)N[C@@H](CC(=O)O)C(=O)N[C@@H](CC(=O)O)C(=O)N[C@@H](CCC(N)=O)C(=O)N[C@@H](CCC(N)=O)C(=O)N[C@@H](CC(=O)O)C(=O)NCC(=O)N[C@@H](Cc1c[nH]c2ccccc12)C(N)=O` [Peptide 21, acetyl-DDQQDGW-amide] (Ac-DDQQDGW-NH2), for which the “cleavage by N-His Ich-1 (in words)” value is listed as “weak cleavage”.
Same read-out and setting: the result for `CC(=O)N[C@H](C(=O)N[C@@H](CO)C(=O)N[C@@H](CCC(N)=O)C(=O)N[C@@H](CCC(N)=O)C(=O)N[C@@H](CC(=O)O)C(=O)NCC(=O)N[C@@H](Cc1c[nH]c2ccccc12)C(N)=O)C(C)C` [Peptide 22, acetyl-VSQQDGW-amide] (Ac-VSQQDGW-NH2) reads “tolerated, but is cleaved at a substantially lower efficiency than P4 Asp”; that for `CC(=O)N[C@H](C(=O)N[C@@H](CCC(=O)O)C(=O)N[C@@H](CCC(N)=O)C(=O)N[C@@H](CCC(N)=O)C(=O)N[C@@H](CC(=O)O)C(=O)NCC(=O)N[C@@H](Cc1c[nH]c2ccccc12)C(N)=O)C(C)C` [Peptide 23, acetyl-VEQQDGW-amide] (Ac-VEQQDGW-NH2), “not tolerated”; that for `CC(=O)N[C@H](C(=O)N[C@@H](C)C(=O)N[C@@H](CCC(N)=O)C(=O)N[C@@H](CCC(N)=O)C(=O)N[C@@H](CC(=O)O)C(=O)NCC(=O)N[C@@H](Cc1c[nH]c2ccccc12)C(N)=O)C(C)C` [Peptide 24, acetyl-VAQQDGW-amide] (Ac-VAQQDGW-NH2), “relatively poor cleavage”.
Still for that read-out and setting: for `CC(=O)N[C@H](C(=O)N[C@@H](CC(N)=O)C(=O)N[C@@H](CCC(N)=O)C(=O)N[C@@H](CCC(N)=O)C(=O)N[C@@H](CC(=O)O)C(=O)NCC(=O)N[C@@H](Cc1c[nH]c2ccccc12)C(N)=O)C(C)C` [Peptide 25, acetyl-VNQQDGW-amide] (Ac-VNQQDGW-NH2) the value was “not tolerated”; for `CC(=O)N[C@H](C(=O)N[C@@H](CC(=O)O)C(=O)N[C@@H](CCC(N)=O)C(=O)N[C@@H](Cc1ccc(O)cc1)C(=O)N[C@@H](CC(=O)O)C(=O)NCC(=O)N[C@@H](Cc1c[nH]c2ccccc12)C(N)=O)C(C)C` [Peptide 40, acetyl-VDQYDGW-amide] (Ac-VDQYDGW-NH2), “poorly cleaved compared to the most preferred peptides”; for `CC(=O)N[C@H](C(=O)N[C@@H](CC(=O)O)C(=O)N[C@@H](CCC(N)=O)C(=O)N[C@@H](CCC(=O)O)C(=O)N[C@@H](CC(=O)O)C(=O)NCC(=O)N[C@@H](Cc1c[nH]c2ccccc12)C(N)=O)C(C)C` [Peptide 41, acetyl-VDQEDGW-amide] (Ac-VDQEDGW-NH2), “poorly cleaved compared to the most preferred peptides”.
On the same count and under the same terms, the result for `CC(=O)N[C@H](C(=O)N[C@@H](CC(=O)O)C(=O)N[C@@H](CCC(N)=O)C(=O)N[C@@H](CCC(N)=O)C(=O)N[C@@H](CCC(=O)O)C(=O)NCC(=O)N[C@@H](Cc1c[nH]c2ccccc12)C(N)=O)C(C)C` [Peptide 42, acetyl-VDQQEGW-amide] (Ac-VDQQEGW-NH2) reads “modest cleavage”.

The next data set concerns N-His Ich-1. In words: 100 mM sodium acetate (pH 6.2), 20% (v/v) glycerol, 5 mM dithiothreitol, 0.5 mM EDTA and approximately 15 μg N-His Ich-1. The note with it: Human, 30° C., up to 60 minutes.
Ac-GEDMQDNSGTYW-NH2: the not cleaved is 1% cleavage after 60 minute reaction.
Same read-out and setting: the result for Ac-HSLDNKDGPVW-NH2 reads 0% cleavage after 60 minute reaction; that for Ac-NEAYVHDAPVRSLY-NH2, 0% cleavage after 60 minute reaction.
Ac-RGVDQQDGKNHW-NH2: the cleaved bond result is “Asp7-Gly”.
As to Ac-WGDEVDGVDEVW-NH2, the not cleaved is 0% cleavage after 60 minute reaction.
On the same count and under the same terms, for Ac-YSDQMDGFHDSW-NH2 the value was 0% cleavage after 60 minute reaction.
